# In PubChem BioAssay AID1963968 (Molecular Pharmacology Branch, DTP, NCI, 2024):
# Test system: 945468-187-T-J3-PDC spheroids with HUVEC/MSC, viability
# Assay: Anticancer human tumor 945468-187-T-J3-PDC patient-derived rectal carcinoma cell line growth inhibition [PI3K]
# Conditions: for IC50: curve of first compound; for viability, T/C: stronger effect = lower value
# In short: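 Complex 3D spheroids (cancer cells + endothelial HUVEC + mesenchymal stem cells); drug pairs of targeted agent x inavolisib/alpelisib/duvelisib/copanlisib; half-log series from ~Cmax, max 10 microM if Cmax unknown; endpoint viability.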
# [1] = second compound 0.0316 µM, first compound 0.0316 µM
# [2] = second compound 0.0316 µM, first compound 0.1 µM
# [3] = second compound 0.0316 µM, first compound 0.316 µM
# [4] = second compound 0.0316 µM, first compound 1 µM
# [5] = second compound 0.0316 µM, first compound 3.16 µM
# [6] = second compound 0.0316 µM, first compound 10 µM
# [7] = second compound 0.1 µM, first compound 0.0316 µM
# [8] = second compound 0.1 µM, first compound 0.1 µM
# [9] = second compound 0.1 µM, first compound 0.316 µM
# [10] = second compound 0.1 µM, first compound 1 µM
# [11] = second compound 0.1 µM, first compound 3.16 µM
# [12] = second compound 0.1 µM, first compound 10 µM
# [13] = second compound 0.316 µM, first compound 0.0316 µM
# [14] = second compound 0.316 µM, first compound 0.1 µM
# [15] = second compound 0.316 µM, first compound 0.316 µM
# [16] = second compound 0.316 µM, first compound 1 µM
# [17] = second compound 0.316 µM, first compound 3.16 µM
# [18] = second compound 0.316 µM, first compound 10 µM
# [19] = second compound 1 µM, first compound 0.0316 µM
# [20] = second compound 1 µM, first compound 0.1 µM
# [21] = second compound 1 µM, first compound 0.316 µM
# [22] = second compound 1 µM, first compound 1 µM
# [23] = second compound 1 µM, first compound 3.16 µM
# [24] = second compound 1 µM, first compound 10 µM
# [25] = second compound 3.16 µM, first compound 0.0316 µM
# [26] = second compound 3.16 µM, first compound 0.1 µM
# [27] = second compound 3.16 µM, first compound 0.316 µM
# [28] = second compound 3.16 µM, first compound 1 µM
# [29] = second compound 3.16 µM, first compound 3.16 µM
# [30] = second compound 3.16 µM, first compound 10 µM
# [31] = second compound 10 µM, first compound 0.0316 µM
# [32] = second compound 10 µM, first compound 0.1 µM
# [33] = second compound 10 µM, first compound 0.316 µM
# [34] = second compound 10 µM, first compound 1 µM
# [35] = second compound 10 µM, first compound 3.16 µM
# [36] = second compound 10 µM, first compound 10 µM
# 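Note: spheroids exposed to agents for 7 days before viability read.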
# 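Throughout, for viability, T/C: 100% = DMSO vehicle control viability.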
smiles,measurement,setting,value
C#Cc1c(F)ccc2cc(O)cc(-c3ncc4c(N5CC6CCC(C5)N6)nc(OCC56CCCN5CC(F)C6)nc4c3F)c12 (stereo not drawn) + CC(Nc1ncnc2nc[nH]c12)c1cc2cccc(Cl)c2c(=O)n1-c1ccccc1,IC50,second compound 0.0316 µM,> 10 µM
same,IC50,second compound 0.1 µM,> 10 µM
same,IC50,second compound 0.316 µM,> 10 µM
same,IC50,second compound 1 µM,> 10 µM
same,IC50,second compound 3.16 µM,> 10 µM
same,IC50,second compound 10 µM,> 10 µM
same,"viability, T/C",[1],91.2%
same,"viability, T/C",[2],93%
same,"viability, T/C",[3],103%
same,"viability, T/C",[4],110%
same,"viability, T/C",[5],113%
same,"viability, T/C",[6],101%
same,"viability, T/C",[7],101%
same,"viability, T/C",[8],105%
same,"viability, T/C",[9],99.8%
same,"viability, T/C",[10],103%
same,"viability, T/C",[11],115%
same,"viability, T/C",[12],101%
same,"viability, T/C",[13],100%
same,"viability, T/C",[14],97.4%
same,"viability, T/C",[15],103%
same,"viability, T/C",[16],107%
same,"viability, T/C",[17],117%
same,"viability, T/C",[18],104%
same,"viability, T/C",[19],100%
same,"viability, T/C",[20],95.2%
same,"viability, T/C",[21],96.8%
same,"viability, T/C",[22],111%
same,"viability, T/C",[23],111%
same,"viability, T/C",[24],97.9%
same,"viability, T/C",[25],102%
same,"viability, T/C",[26],105%
same,"viability, T/C",[27],106%
same,"viability, T/C",[28],99.8%
same,"viability, T/C",[29],110%
same,"viability, T/C",[30],101%
same,"viability, T/C",[31],100%
same,"viability, T/C",[32],99.5%
same,"viability, T/C",[33],111%
same,"viability, T/C",[34],126%
same,"viability, T/C",[35],121%
same,"viability, T/C",[36],92.5%
CC(Cn1ccc(-c2ccc(C#N)c(Cl)c2)n1)NC(=O)c1cc(C(C)O)[nH]n1 (stereo not drawn) + CC(Nc1ncnc2nc[nH]c12)c1cc2cccc(Cl)c2c(=O)n1-c1ccccc1,IC50,second compound 0.0316 µM,> 10 µM
same,IC50,second compound 0.1 µM,> 10 µM
same,IC50,second compound 0.316 µM,> 10 µM
same,IC50,second compound 1 µM,> 10 µM
same,IC50,second compound 3.16 µM,> 10 µM
same,IC50,second compound 10 µM,> 10 µM
same,"viability, T/C",[1],93.4%
same,"viability, T/C",[2],104%
same,"viability, T/C",[3],126%
same,"viability, T/C",[4],91.3%
same,"viability, T/C",[5],125%
same,"viability, T/C",[6],94%
same,"viability, T/C",[7],91.1%
same,"viability, T/C",[8],95.5%
same,"viability, T/C",[9],89.5%
same,"viability, T/C",[10],91.4%
same,"viability, T/C",[11],114%
same,"viability, T/C",[12],105%
same,"viability, T/C",[13],95.5%
same,"viability, T/C",[14],100%
same,"viability, T/C",[15],118%
same,"viability, T/C",[16],97.9%
same,"viability, T/C",[17],101%
same,"viability, T/C",[18],106%
same,"viability, T/C",[19],87.8%
same,"viability, T/C",[20],108%
same,"viability, T/C",[21],98.1%
same,"viability, T/C",[22],93%
same,"viability, T/C",[23],104%
same,"viability, T/C",[24],94.8%
same,"viability, T/C",[25],94.8%
same,"viability, T/C",[26],102%
same,"viability, T/C",[27],96.5%
same,"viability, T/C",[28],112%
same,"viability, T/C",[29],113%
same,"viability, T/C",[30],110%
same,"viability, T/C",[31],122%
same,"viability, T/C",[32],99.1%
same,"viability, T/C",[33],98.2%
same,"viability, T/C",[34],96.7%
same,"viability, T/C",[35],104%
same,"viability, T/C",[36],91.2%
CC1(C)CCC(Nc2ncc(C(F)(F)F)c(-c3c[nH]c4c(P(C)(C)=O)c(C#N)ccc34)n2)CN1 (stereo not drawn) + CC(Nc1ncnc2nc[nH]c12)c1cc2cccc(Cl)c2c(=O)n1-c1ccccc1,IC50,second compound 0.0316 µM,4.49 µM
same,IC50,second compound 0.1 µM,4.55 µM
same,IC50,second compound 0.316 µM,4.74 µM
same,IC50,second compound 1 µM,4.69 µM
same,IC50,second compound 3.16 µM,4.74 µM
same,IC50,second compound 10 µM,4.74 µM
same,"viability, T/C",[1],65.5%
same,"viability, T/C",[2],64.1%
same,"viability, T/C",[3],58.2%
same,"viability, T/C",[4],68.1%
same,"viability, T/C",[5],75.1%
same,"viability, T/C",[6],12.9%
same,"viability, T/C",[7],67.7%
same,"viability, T/C",[8],59.8%
same,"viability, T/C",[9],54.9%
same,"viability, T/C",[10],72%
same,"viability, T/C",[11],73%
same,"viability, T/C",[12],16.6%
same,"viability, T/C",[13],68.2%
same,"viability, T/C",[14],67.4%
same,"viability, T/C",[15],55.8%
same,"viability, T/C",[16],66.2%
same,"viability, T/C",[17],86.7%
same,"viability, T/C",[18],15.2%
same,"viability, T/C",[19],79.9%
same,"viability, T/C",[20],62.4%
same,"viability, T/C",[21],56.6%
same,"viability, T/C",[22],67.5%
same,"viability, T/C",[23],78.9%
same,"viability, T/C",[24],13.4%
same,"viability, T/C",[25],73.8%
same,"viability, T/C",[26],64.3%
same,"viability, T/C",[27],59%
same,"viability, T/C",[28],66.6%
same,"viability, T/C",[29],79.4%
same,"viability, T/C",[30],15.7%
same,"viability, T/C",[31],78.9%
same,"viability, T/C",[32],66.1%
same,"viability, T/C",[33],77.9%
same,"viability, T/C",[34],58.9%
same,"viability, T/C",[35],81.4%
same,"viability, T/C",[36],7.98%
Cn1cnc2c(F)c(Nc3ccc(Br)cc3Cl)c(C(=O)NOCCO)cc21 + COc1c(OCCCN2CCOCC2)ccc2c3n(c(=NC(=O)c4cnc(N)nc4)nc12)CCN3,IC50,second compound 0.00316 µM,> 3 µM
same,IC50,second compound 0.01 µM,1.25 µM
same,IC50,second compound 0.0316 µM,0.154 µM
same,IC50,second compound 0.1 µM,< 0.00949 µM
same,IC50,second compound 0.316 µM,< 0.00949 µM
same,IC50,second compound 1 µM,< 0.00949 µM
same,"viability, T/C","second compound 0.00316 µM, first compound 0.00949 µM",103%
same,"viability, T/C","second compound 0.00316 µM, first compound 0.03 µM",99.9%
same,"viability, T/C","second compound 0.00316 µM, first compound 0.0949 µM",103%
same,"viability, T/C","second compound 0.00316 µM, first compound 0.3 µM",91.7%
same,"viability, T/C","second compound 0.00316 µM, first compound 0.949 µM",91.8%
same,"viability, T/C","second compound 0.00316 µM, first compound 3 µM",68%
same,"viability, T/C","second compound 0.01 µM, first compound 0.00949 µM",96.1%
same,"viability, T/C","second compound 0.01 µM, first compound 0.03 µM",103%
same,"viability, T/C","second compound 0.01 µM, first compound 0.0949 µM",89.8%
same,"viability, T/C","second compound 0.01 µM, first compound 0.3 µM",80.7%
same,"viability, T/C","second compound 0.01 µM, first compound 0.949 µM",56.4%
same,"viability, T/C","second compound 0.01 µM, first compound 3 µM",29.9%
same,"viability, T/C","second compound 0.0316 µM, first compound 0.00949 µM",93.5%
same,"viability, T/C","second compound 0.0316 µM, first compound 0.03 µM",67.4%
same,"viability, T/C","second compound 0.0316 µM, first compound 0.0949 µM",64.3%
same,"viability, T/C","second compound 0.0316 µM, first compound 0.3 µM",36.4%
same,"viability, T/C","second compound 0.0316 µM, first compound 0.949 µM",27.8%
same,"viability, T/C","second compound 0.0316 µM, first compound 3 µM",13.7%
same,"viability, T/C","second compound 0.1 µM, first compound 0.00949 µM",42.2%
same,"viability, T/C","second compound 0.1 µM, first compound 0.03 µM",33.9%
same,"viability, T/C","second compound 0.1 µM, first compound 0.0949 µM",27.4%
same,"viability, T/C","second compound 0.1 µM, first compound 0.3 µM",14.7%
same,"viability, T/C","second compound 0.1 µM, first compound 0.949 µM",9.64%
same,"viability, T/C","second compound 0.1 µM, first compound 3 µM",3.84%
same,"viability, T/C","second compound 0.316 µM, first compound 0.00949 µM",17.5%
same,"viability, T/C","second compound 0.316 µM, first compound 0.03 µM",18.3%
same,"viability, T/C","second compound 0.316 µM, first compound 0.0949 µM",10%
same,"viability, T/C","second compound 0.316 µM, first compound 0.3 µM",8.2%
same,"viability, T/C","second compound 0.316 µM, first compound 0.949 µM",3.92%
same,"viability, T/C","second compound 0.316 µM, first compound 3 µM",1.13%
same,"viability, T/C","second compound 1 µM, first compound 0.00949 µM",13.6%
same,"viability, T/C","second compound 1 µM, first compound 0.03 µM",8.89%
same,"viability, T/C","second compound 1 µM, first compound 0.0949 µM",7.97%
same,"viability, T/C","second compound 1 µM, first compound 0.3 µM",4.92%
same,"viability, T/C","second compound 1 µM, first compound 0.949 µM",4.14%
same,"viability, T/C","second compound 1 µM, first compound 3 µM",1.82%
